Data: US20160238590A1, “COMPOSITIONS AND METHODS RELATED TO OAT SENSITIVITY” (IMMUSANT, INC., priority 2013, published 2016)
Where no end group is shown, it is not given here. [ ]: non-standard residue; d: D form. pGlu = O=C1CC[C@@H](C(=O)O)N1

How the values were obtained:
Format in all cases: cell-based, human
Patient 2 TCC-03 = assay: IFN-γ ELISpot with T cell clone; settings: TCC Patient 2 TCC-03, peptide 25 μg/mL
Outline: (§1)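 Patient PBMC were labeled with CFSE and cultured with antigen for seven days. Dividing cells were sorted singly onto feeders with IL-2, IL-4 and anti-CD3. Expanded clones were then screened by IFN-γ ELISpot against antigen on irradiated HLA-matched PBMC.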

Patient 2 TCC-01 = assay: IFN-γ ELISpot with T cell clone
Outline: as §1

Patient 2 TCC-02 = assay: IFN-γ ELISpot with T cell clone; settings: TCC Patient 2 TCC-02, peptide 25 μg/mL
Outline: as §1

Patient 9 TCC-02 = assay: IFN-γ ELISpot with T cell clone; settings: TCC Patient 9 TCC-02, peptide 50 μg/mL
Outline: as §1

Patient 14 TCC-01 = assay: IFN-γ ELISpot with T cell clone; settings: TCC Patient 14 TCC-01, peptide 50 μg/mL
Outline: as §1

Patient 6 TCC-01 = assay: IFN-γ ELISpot with T cell clone
Outline: as §1

Patient 9 TCC-01 = assay: IFN-γ ELISpot with T cell clone; settings: TCC Patient 9 TCC-01, peptide 50 μg/mL
Outline: as §1

Patient 8 TCC-01 = assay: IFN-γ ELISpot with T cell clone; settings: TCC Patient 8 TCC-01, peptide 25 μg/mL
Outline: as §1

Patient 10 TCC-01 = assay: IFN-γ ELISpot with T cell clone; settings: TCC Patient 10 TCC-01, peptide 50 μg/mL
Outline: as §1

PBMC [1] = assay: IFN-γ ELISpot on PBMC of CD patients after 3-day barley challenge; settings: for response following barley challenge: 3 oats responders, titrating concentrations (FIG. 1b); for patients responding following pure barley challenge: 3 patients that had previously responded to avenin peptides following oats challenge; for responses compared with DQ2.5-ave-1c responses: third patient; for responses compared with DQ2.5-ave-1c responses / responses compared with DQ2.5-hor-3a responses: after barley challenge (FIG. 1b); for responses compared with DQ2.5-hor-3a responses: 2/3 patients
Outline: (§2)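 PBMC from HLA-DQ2.5+/DQ8+ biopsy-proven coeliac patients on gluten-free diet ≥4 weeks, collected on day 6 after starting a 3-day oral challenge (oats 100 g/day, barley 150 g/day, or wheat/barley/rye muffins 22-25 g each daily). Responses to avenin, hordein and gluten peptide libraries, some deamidated or tTG-treated, measured by IFN-γ ELISpot.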

PBMC [2] = assay: IFN-γ ELISpot on PBMC of CD patients after combined wheat, barley, and rye challenge
Source text: Australian Caucasian HLA-DQ2.5^+ and/or HLA-DQ8^+ CD subjects were recruited by advertisement in the Coeliac Society of Victoria newsletter and all had biopsy-proven CD conforming to ESPGHAN criteria. Patients had been on strict gluten free diet for at least 4 weeks prior to commencing grain challenge. Patients underwent 3-day grain challenge with oats, barley, or combined wheat, barley, and rye muffins, and 6 days after commencement, blood was collected. Day 0 responses were not observed in the selection of patients tested, as described previously^8.
Oats challenge consisted of 100 g dry weight daily of one of three commercial brands of oats: one not tested for wheat contamination (Uncle Toby's; Oats #1), and two shown by R5 ELISA to contain less than 20 ppm wheat gluten (Tilquhilie Pudding; Oats #2 and Freedom Food; Oats #3). Barley challenge consisted of pearl barley (Ward McKenzie) cooked into a risotto (150 g dry weight daily) and the wheat challenge consisted of four 50 g slices of wheat bread daily (Baker's Delight white loaf cut to toasting thickness). The combined wheat, barley, and rye challenge consisted of muffins baked with wheat flour (White Wings), barley flour (Four Leaf Milling), and rye flour (Four Leaf Milling; 22-25 g dry weight each daily). A symptom diary based on a […] Likert scale was completed by participants daily from baseline until day 6.
Two avenin peptide libraries were utilized for epitope screening. These were designed using avenin sequences from GenBank and a customized algorithm, as previously described^9. The initial library consisted of 199 screening-grade 20 mers including all possible 12 mers (Mimotopes). This library was screened with and without tTG pre-treatment. The second library consisted of additional avenin sequences that were synthesized with glutamate substitution at sites predicted to be deamidated by published algorithms^10, 11 removing the requirement for tTG treatment. This library contained 369 screening-grade 20 mers, including all possible 12 mers (Pepscan). The second round avenin library contained wild-type and deamidated versions of the most immunogenic sequences (25 high quality 16 mers from Mimotopes). High quality peptides containing previously described immunogenic sequences from wheat, barley, and rye were used to test for cross-reactivity^8 (Pepscan). High quality hordein and avenin peptides for TCC testing and biochemical studies were ordered from Pepscan, Mimotopes, or GL Biochem.
Peripheral blood mononuclear cells (PBMC) were isolated from heparinized whole blood using Ficoll-Paque™ Plus density-gradient centrifugation (GE Healthcare). IFN-γ ELISpot (Mabtech) was set up as previously described^8.

PBMC [3] = assay: IFN-γ ELISpot on PBMC of CD patients on day 6 after 3-day oats challenge
Outline: as §2

[4] = TCC Patient 2 TCC-01, peptide 25 μg/mL
[5] = TCC Patient 2 TCC-01, peptide 50 μg/mL
[6] = TCC Patient 6 TCC-01, peptide 25 μg/mL
[7] = TCC Patient 6 TCC-01, peptide 50 μg/mL
[8] = Patient 1, peptide 25 μg/ml, after barley challenge
[9] = Patient 2, peptide 25 μg/ml, after barley challenge
[10] = Patient 3, peptide 25 μg/ml, after barley challenge
[11] = 19 HLA-DQ2.5+ CD patients, peptide 10 μg/mL (FIG. 1a)

## PEQPFPEQPQPYPQQP (not fully specified (C-terminus))
Patient 2 TCC-03
  IFN-γ ELISpot response (SFU): 159 SFU
  significant SFU as a percentage of maximal peptide SFU: *** (***: >70%)
Patient 2 TCC-01; [4]
  IFN-γ ELISpot response (SFU): 151 SFU
  significant SFU as a percentage of maximal peptide SFU: ** (**: 40-70%)
Patient 2 TCC-01; [5]
  IFN-γ ELISpot response (raw SFU): 202 SFU
  significant SFU as a percentage of maximal peptide SFU: ** (**: 40-70%)
Patient 2 TCC-02
  IFN-γ ELISpot response (SFU): 5 SFU
Patient 9 TCC-02
  IFN-γ ELISpot response (raw SFU): 0 SFU
Patient 14 TCC-01
  IFN-γ ELISpot response (raw SFU): 66 SFU
  significant SFU as a percentage of maximal peptide SFU: *** (***: >70%)
Patient 6 TCC-01; [6]
  IFN-γ ELISpot response (SFU): 59 SFU
  significant SFU as a percentage of maximal peptide SFU: ** (**: 40-70%)
Patient 6 TCC-01; [7]
  IFN-γ ELISpot response (raw SFU): 73 SFU
  significant SFU as a percentage of maximal peptide SFU: *** (***: >70%)
Patient 9 TCC-01
  IFN-γ ELISpot response (raw SFU): 0 SFU
Patient 8 TCC-01
  IFN-γ ELISpot response (SFU): 145 SFU
  significant SFU as a percentage of maximal peptide SFU: *** (***: >70%)
Patient 10 TCC-01
  IFN-γ ELISpot response (raw SFU): 3 SFU

## PEQPIPEQPQPYPQQ
PBMC [1]
  response following barley challenge: responded to all three peptides to varying degrees
  patients responding following pure barley challenge: All three patients responded
  responses compared with DQ2.5-ave-1c responses: slightly lower
PBMC [1]; [8]
  IFN-γ ELISpot response (raw SFU): 317 SFU
  significant SFU as a percentage of maximal peptide SFU: *** (***: >70%)
PBMC [1]; [9]
  IFN-γ ELISpot response (raw SFU): 162 SFU
  significant SFU as a percentage of maximal peptide SFU: *** (***: >70%)
PBMC [1]; [10]
  IFN-γ ELISpot response (raw SFU): 142 SFU
  significant SFU as a percentage of maximal peptide SFU: *** (***: >70%)
PBMC [2]; [11]
  patients that did not respond to either peptide: 9 patients
  patients that responded to both peptides: 8 patients
  patients that responded to the hordein peptide but not the avenin peptide: 2 patients
PBMC [2]; combined wheat, barley, and rye challenge
  responses compared with AAB32025 (7-21) [Q7 to pyroE, Q15 to E, and Q21 to Q-amide] responses: generally higher
Patient 2 TCC-03
  IFN-γ ELISpot response (SFU): 156 SFU
  significant SFU as a percentage of maximal peptide SFU: *** (***: >70%)
Patient 2 TCC-01; [4]
  IFN-γ ELISpot response (SFU): 1 SFU
Patient 2 TCC-01; [5]
  IFN-γ ELISpot response (raw SFU): 1 SFU
Patient 2 TCC-02
  IFN-γ ELISpot response (SFU): 1 SFU
Patient 9 TCC-02
  IFN-γ ELISpot response (raw SFU): 2 SFU
Patient 14 TCC-01
  IFN-γ ELISpot response (raw SFU): 48 SFU
  significant SFU as a percentage of maximal peptide SFU: ** (**: 40-70%)
Patient 6 TCC-01; [6]
  IFN-γ ELISpot response (SFU): 107 SFU
  significant SFU as a percentage of maximal peptide SFU: *** (***: >70%)
Patient 6 TCC-01; [7]
  IFN-γ ELISpot response (raw SFU): 86 SFU
  significant SFU as a percentage of maximal peptide SFU: *** (***: >70%)
Patient 9 TCC-01
  IFN-γ ELISpot response (raw SFU): 4 SFU
Patient 8 TCC-01
  IFN-γ ELISpot response (SFU): 143 SFU
  significant SFU as a percentage of maximal peptide SFU: *** (***: >70%)
Patient 10 TCC-01
  IFN-γ ELISpot response (raw SFU): 3 SFU

## QPQPYPEQPQPYP ([pGlu]PQPYPEQPQPYP-NH2; SMILES NC(=O)CC[C@H](NC(=O)[C@H](CCC(=O)O)NC(=O)[C@@H]1CCCN1C(=O)[C@H](Cc1ccc(O)cc1)NC(=O)[C@@H]1CCCN1C(=O)[C@H](CCC(N)=O)NC(=O)[C@@H]1CCCN1C(=O)[C@@H]1CCC(=O)N1)C(=O)N1CCC[C@H]1C(=O)N[C@@H](CCC(N)=O)C(=O)N1CCC[C@H]1C(=O)N[C@@H](Cc1ccc(O)cc1)C(=O)N1CCC[C@H]1C(N)=O)
PBMC [1]
  responses compared with DQ2.5-hor-3a responses: almost equivalent
  response following barley challenge: responded to all three peptides to varying degrees
  responses compared with DQ2.5-ave-1c responses: equivalent
Patient 2 TCC-03
  IFN-γ ELISpot response (SFU): 132 SFU
  significant SFU as a percentage of maximal peptide SFU: *** (***: >70%)
Patient 2 TCC-01; [4]
  IFN-γ ELISpot response (SFU): 232 SFU
  significant SFU as a percentage of maximal peptide SFU: *** (***: >70%)
Patient 2 TCC-01; [5]
  IFN-γ ELISpot response (raw SFU): 316 SFU
  significant SFU as a percentage of maximal peptide SFU: *** (***: >70%)
Patient 2 TCC-02
  IFN-γ ELISpot response (SFU): 1 SFU
Patient 9 TCC-02
  IFN-γ ELISpot response (raw SFU): 0 SFU
Patient 14 TCC-01
  IFN-γ ELISpot response (raw SFU): 27 SFU
  significant SFU as a percentage of maximal peptide SFU: * (*: 20-40%)
Patient 6 TCC-01; [6]
  IFN-γ ELISpot response (SFU): 86 SFU
  significant SFU as a percentage of maximal peptide SFU: *** (***: >70%)
Patient 6 TCC-01; [7]
  IFN-γ ELISpot response (raw SFU): 52 SFU
  significant SFU as a percentage of maximal peptide SFU: ** (**: 40-70%)
Patient 9 TCC-01
  IFN-γ ELISpot response (raw SFU): 1 SFU
Patient 8 TCC-01
  IFN-γ ELISpot response (SFU): 175 SFU
  significant SFU as a percentage of maximal peptide SFU: *** (***: >70%)
Patient 10 TCC-01
  IFN-γ ELISpot response (raw SFU): 3 SFU

## YQPYPEQEQPILQQ
PBMC [1]
  responses compared with DQ2.5-hor-3a responses: lower
  response following barley challenge: responded to all three peptides to varying degrees
  patients responding following pure barley challenge: All three patients responded
PBMC [1]; [8]
  IFN-γ ELISpot response (raw SFU): 59 SFU
  significant SFU as a percentage of maximal peptide SFU: ^^ (^^: 10-20%)
PBMC [1]; [9]
  IFN-γ ELISpot response (raw SFU): 204.5 SFU
  significant SFU as a percentage of maximal peptide SFU: *** (***: >70%)
PBMC [1]; [10]
  IFN-γ ELISpot response (raw SFU): 26 SFU
  significant SFU as a percentage of maximal peptide SFU: ^^ (^^: 10-20%)
PBMC [1]; after barley challenge
  patients with lower polyclonal T cell responses compared with 1103203A (31-45) peptide: 2/3
PBMC [3]; three additional patients that responded to the peptide after barley challenge
  response following oats challenge: did not respond
PBMC [3]; three patients that responded after the combined grain challenge
  response after previous oats challenge: no responses
PBMC [2]; [11]
  patients that did not respond to either peptide: 9 patients
  patients that responded to both peptides: 8 patients
Patient 2 TCC-03
  IFN-γ ELISpot response (SFU): 1 SFU
Patient 2 TCC-01; [4]
  IFN-γ ELISpot response (SFU): 238 SFU
  significant SFU as a percentage of maximal peptide SFU: *** (***: >70%)
Patient 2 TCC-01; [5]
  IFN-γ ELISpot response (raw SFU): 300 SFU
  significant SFU as a percentage of maximal peptide SFU: *** (***: >70%)
Patient 2 TCC-02
  IFN-γ ELISpot response (SFU): 145 SFU
  significant SFU as a percentage of maximal peptide SFU: ** (**: 40-70%)
Patient 9 TCC-02
  IFN-γ ELISpot response (raw SFU): 2 SFU
Patient 14 TCC-01
  IFN-γ ELISpot response (raw SFU): 18 SFU
Patient 6 TCC-01; [6]
  IFN-γ ELISpot response (SFU): 3 SFU
Patient 6 TCC-01; [7]
  IFN-γ ELISpot response (raw SFU): 2 SFU
Patient 9 TCC-01
  IFN-γ ELISpot response (raw SFU): 4 SFU
Patient 8 TCC-01
  IFN-γ ELISpot response (SFU): 114 SFU
  significant SFU as a percentage of maximal peptide SFU: ** (**: 40-70%)
Patient 10 TCC-01
  IFN-γ ELISpot response (raw SFU): 5 SFU
